Test results reported in patent US11878975B2, “Substituted indole compounds useful as TLR inhibitors” (BRISTOL-MYERS SQUIBB COMPANY, priority 2017, dated 2024).

Assays:
Assay type in all cases: cell-based
human TLR8 = target: T1, human TLR8 (Homo sapiens, UniProt Q9NR97); assay: TLR8 inhibition reporter assay (HEK-Blue cells, SEAP reporter, R848 stimulation); details: HEK-Blue cells overexpressing human TLR8, SEAP reporter, R848 15.9 μM
T1 construct: host or cells: HEK-Blue cells
T1 sequence (Q9NR97 27-1041): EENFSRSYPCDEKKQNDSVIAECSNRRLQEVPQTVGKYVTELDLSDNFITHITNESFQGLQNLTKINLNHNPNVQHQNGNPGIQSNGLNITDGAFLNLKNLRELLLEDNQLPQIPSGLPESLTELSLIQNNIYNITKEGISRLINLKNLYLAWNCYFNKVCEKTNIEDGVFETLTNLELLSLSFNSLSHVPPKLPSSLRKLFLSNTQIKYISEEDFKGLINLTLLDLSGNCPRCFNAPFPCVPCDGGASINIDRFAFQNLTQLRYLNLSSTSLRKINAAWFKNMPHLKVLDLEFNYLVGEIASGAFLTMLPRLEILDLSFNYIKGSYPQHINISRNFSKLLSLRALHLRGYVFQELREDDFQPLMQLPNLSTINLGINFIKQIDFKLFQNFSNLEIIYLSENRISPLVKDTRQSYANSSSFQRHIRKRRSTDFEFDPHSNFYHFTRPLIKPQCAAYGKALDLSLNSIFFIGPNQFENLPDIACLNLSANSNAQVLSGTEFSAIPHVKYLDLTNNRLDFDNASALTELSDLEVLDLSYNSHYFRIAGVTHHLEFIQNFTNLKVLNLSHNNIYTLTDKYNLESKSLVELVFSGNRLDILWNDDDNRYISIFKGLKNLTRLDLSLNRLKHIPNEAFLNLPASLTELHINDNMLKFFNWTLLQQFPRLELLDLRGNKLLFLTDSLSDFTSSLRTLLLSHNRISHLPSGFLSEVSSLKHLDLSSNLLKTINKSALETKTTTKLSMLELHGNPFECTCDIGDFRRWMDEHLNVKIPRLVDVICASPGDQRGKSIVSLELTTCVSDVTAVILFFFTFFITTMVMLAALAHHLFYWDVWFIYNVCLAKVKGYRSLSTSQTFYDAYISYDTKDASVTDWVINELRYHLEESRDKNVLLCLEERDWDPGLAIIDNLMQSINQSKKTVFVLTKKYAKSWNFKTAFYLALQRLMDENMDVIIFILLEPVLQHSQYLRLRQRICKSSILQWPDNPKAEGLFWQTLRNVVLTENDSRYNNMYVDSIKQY
How it was run: (§1)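 Percent inhibition is derived from SEAP signal, scaled between agonist-plus-DMSO wells and wells given a known inhibitor. Test compounds (0.05 nM–50 μM) are pre-incubated 30 min at room temperature before agonist addition (TLR7: 7.5 μM gardiquimod; TLR8: 15.9 μM R848; TLR9: 5 nM ODN2006) and 22 h culture at 37 °C.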

human TLR9 = target: T2, human TLR9 (Homo sapiens, UniProt Q9NR96); assay: TLR9 inhibition reporter assay (HEK-Blue cells, SEAP reporter, ODN2006 stimulation); details: HEK-Blue cells overexpressing human TLR9, SEAP reporter, ODN2006 5 nM
T2 construct: host or cells: HEK-Blue cells
T2 sequence (Q9NR96 26-1032): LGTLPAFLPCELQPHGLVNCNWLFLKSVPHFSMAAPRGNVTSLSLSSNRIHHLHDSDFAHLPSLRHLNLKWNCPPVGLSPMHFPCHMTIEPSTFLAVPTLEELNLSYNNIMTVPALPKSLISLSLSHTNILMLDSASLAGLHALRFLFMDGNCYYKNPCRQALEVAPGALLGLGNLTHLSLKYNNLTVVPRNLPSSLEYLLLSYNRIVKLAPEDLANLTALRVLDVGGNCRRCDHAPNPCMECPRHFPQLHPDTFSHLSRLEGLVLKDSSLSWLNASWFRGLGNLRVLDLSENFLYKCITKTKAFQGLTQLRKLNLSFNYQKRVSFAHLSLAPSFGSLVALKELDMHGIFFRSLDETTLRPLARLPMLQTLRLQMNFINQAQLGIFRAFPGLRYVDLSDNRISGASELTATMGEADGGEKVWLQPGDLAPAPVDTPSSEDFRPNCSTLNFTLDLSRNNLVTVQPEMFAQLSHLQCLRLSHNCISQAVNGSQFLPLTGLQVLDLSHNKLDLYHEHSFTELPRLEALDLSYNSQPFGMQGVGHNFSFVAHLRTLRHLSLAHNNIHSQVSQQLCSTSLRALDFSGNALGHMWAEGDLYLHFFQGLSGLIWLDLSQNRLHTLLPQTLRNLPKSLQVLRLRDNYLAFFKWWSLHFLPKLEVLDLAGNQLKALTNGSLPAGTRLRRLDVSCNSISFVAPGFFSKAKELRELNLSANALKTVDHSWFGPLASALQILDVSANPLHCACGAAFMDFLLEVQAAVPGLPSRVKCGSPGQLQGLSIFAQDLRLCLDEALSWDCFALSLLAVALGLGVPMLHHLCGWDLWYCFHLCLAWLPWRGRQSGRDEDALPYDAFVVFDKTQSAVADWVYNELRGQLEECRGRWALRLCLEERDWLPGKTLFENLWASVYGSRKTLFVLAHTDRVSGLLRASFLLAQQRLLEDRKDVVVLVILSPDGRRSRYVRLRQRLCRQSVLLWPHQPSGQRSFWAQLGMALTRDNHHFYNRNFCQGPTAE
How it was run: as §1

human TLR7 = target: T3, human TLR7 (Homo sapiens, UniProt Q9NYK1); assay: TLR7 inhibition reporter assay (HEK-Blue cells, SEAP reporter, gardiquimod stimulation); details: HEK-Blue cells overexpressing human TLR7, SEAP reporter, gardiquimod 7.5 μM
T3 construct: host or cells: HEK-Blue cells
T3 sequence (Q9NYK1 27-1049): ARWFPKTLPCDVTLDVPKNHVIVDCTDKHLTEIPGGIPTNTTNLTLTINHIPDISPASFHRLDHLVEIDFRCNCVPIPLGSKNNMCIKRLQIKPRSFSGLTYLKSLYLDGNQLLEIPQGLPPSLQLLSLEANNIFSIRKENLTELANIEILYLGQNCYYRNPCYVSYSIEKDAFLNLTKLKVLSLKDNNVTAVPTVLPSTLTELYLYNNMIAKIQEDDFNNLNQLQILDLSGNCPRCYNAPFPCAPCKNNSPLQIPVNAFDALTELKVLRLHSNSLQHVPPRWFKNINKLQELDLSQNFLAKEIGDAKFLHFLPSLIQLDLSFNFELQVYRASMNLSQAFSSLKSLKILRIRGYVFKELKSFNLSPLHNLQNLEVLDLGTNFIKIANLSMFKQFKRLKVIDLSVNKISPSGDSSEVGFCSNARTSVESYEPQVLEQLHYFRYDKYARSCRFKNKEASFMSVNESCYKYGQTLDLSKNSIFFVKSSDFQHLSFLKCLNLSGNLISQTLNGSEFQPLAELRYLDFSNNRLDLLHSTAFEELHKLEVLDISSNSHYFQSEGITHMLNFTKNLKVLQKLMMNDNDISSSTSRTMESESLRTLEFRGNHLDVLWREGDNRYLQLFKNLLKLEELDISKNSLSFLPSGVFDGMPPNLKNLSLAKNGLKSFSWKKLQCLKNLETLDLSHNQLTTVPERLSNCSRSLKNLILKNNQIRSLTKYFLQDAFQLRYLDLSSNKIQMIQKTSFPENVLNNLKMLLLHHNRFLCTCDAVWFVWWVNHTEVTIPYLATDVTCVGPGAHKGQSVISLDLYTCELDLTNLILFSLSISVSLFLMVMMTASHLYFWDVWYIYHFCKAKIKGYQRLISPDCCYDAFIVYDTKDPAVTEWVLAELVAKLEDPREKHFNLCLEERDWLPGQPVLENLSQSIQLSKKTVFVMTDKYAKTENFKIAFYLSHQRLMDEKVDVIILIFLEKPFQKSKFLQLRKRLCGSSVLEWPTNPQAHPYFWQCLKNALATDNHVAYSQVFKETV
How it was run: as §1

SMILES | IC50 (human TLR8) | IC50 (human TLR9) | IC50 (human TLR7)
Cc1cc(-c2[nH]c3ccc(C4CN(C)C(C)(C)CO4)cc3c2C(C)C)cn2ncnc12 (single isomer, unassigned) [Example 375, 2-(3-isopropyl-2-(8-methyl-[1,2,4]triazolo[1,5-a]pyridin-6-yl)-1H-indol-5-yl)-4,5,5-trimethylmorpholine] | 4.7 nM | 2060 nM | 1 nM
Cc1cc(-c2[nH]c3ccc(C4CN(C)C(C)(C)CO4)cc3c2C(C)C)cn2ncnc12 (single isomer, unassigned) [Example 376, 2-(3-isopropyl-2-(8-methyl-[1,2,4]triazolo[1,5-a]pyridin-6-yl)-1H-indol-5-yl)-4,5,5-trimethylmorpholine] | 2.1 nM | 2670 nM | 2 nM
Cc1cc(-c2[nH]c3ccc(C4CN(CC(=O)N(C)C)C(C)(C)CO4)cc3c2C(C)C)cn2ncnc12 (single isomer, unassigned) [Example 379, 2-(2-(3-isopropyl-2-(8-methyl-[1,2,4]triazolo[1,5-a]pyridin-6-yl)-1H-indol-5-yl)-5,5-dimethylmorpholino)-N,N-dimethylacetamide] | 70 nM | 5370 nM | 12 nM
Cc1cc(-c2[nH]c3ccc(CC4CCCN4Cc4ccccc4)cc3c2C(C)C)cn2ncnc12 (single isomer, unassigned) [Example 396, 5-[(1-benzylpyrrolidin-2-yl)methyl]-2-{8-methyl-[1,2,4]triazolo[1,5-a]pyridin-6-yl}-3-(propan-2-yl)-1H-indole] | 2.8 nM | 2380 nM | 2 nM
Cc1cc(-c2[nH]c3ccc(CC4CCCN4Cc4ccccc4)cc3c2C(C)C)cn2ncnc12 (single isomer, unassigned) [Example 397, 5-[(1-benzylpyrrolidin-2-yl)methyl]-2-{8-methyl-[1,2,4]triazolo[1,5-a]pyridin-6-yl}-3-(propan-2-yl)-1H-indole] | 5.4 nM | 1600 nM | 3 nM
Cc1cc(-c2[nH]c3ccc(C4CCC(N)CC4)cc3c2C(C)C)cc(C)n1 (stereo not drawn) [Example 5] | 14 nM | 597 nM | 1 nM
COc1cc(-c2[nH]c3ccc(C4CCC(NC5CC5)CC4)cc3c2C(C)C)cn2ncnc12 (stereo not drawn) [Example 10] | 0.47 nM | 1260 nM | 0.17 nM
COc1cc(-c2[nH]c3ccc(C4CCC(NC5CC5)CC4)cc3c2C(C)C)cn2ncnc12 (stereo not drawn) [Example 11] | 3.7 nM | 2070 nM | 2 nM
COc1cc(-c2[nH]c3ccc(C4CCC(N(C)C5CC5)CC4)cc3c2C(C)C)cn2ncnc12 (stereo not drawn) [Example 12] | 1.6 nM | 2130 nM | 0.7 nM
COc1cc(-c2[nH]c3ccc(C4CCC(N(C)C5CC5)CC4)cc3c2C(C)C)cn2ncnc12 (stereo not drawn) [Example 13] | 4.8 nM | 2810 nM | 1 nM
Cc1c(-c2[nH]c3ccc(C4CCC(NC5CC5)CC4)cc3c2C(C)C)cn2ncnc2c1C (stereo not drawn) [Example 14] | 3.5 nM | 4080 nM | 5 nM
Cc1c(-c2[nH]c3ccc(C4CCC(NC5CC5)CC4)cc3c2C(C)C)cn2ncnc2c1C (stereo not drawn) [Example 17] | 0.7 nM | 3530 nM | 0.73 nM
COc1cc(-c2[nH]c3ccc(C4CCC(N5CC(F)(F)C5)CC4)cc3c2C(C)C)cn2ncnc12 (stereo not drawn) [Example 18] | 38 nM | 33600 nM | 5 nM
COc1cc(-c2[nH]c3ccc(C4CCC(N5CC(F)(F)C5)CC4)cc3c2C(C)C)cn2ncnc12 (stereo not drawn) [Example 19] | 218 nM | 29200 nM | 26 nM
COc1cc(-c2[nH]c3ccc(C4CCC(N5CC(F)C5)CC4)cc3c2C(C)C)cn2ncnc12 (stereo not drawn) [Example 21] | 1.2 nM | 2380 nM | 0.41 nM
COc1cc(-c2[nH]c3ccc(C4CCC(N5CC(F)C5)CC4)cc3c2C(C)C)cn2ncnc12 (stereo not drawn) [Example 23] | 9.2 nM | 2840 nM | 2 nM
Cc1c(-c2[nH]c3ccc(C4CCC(N5CC(F)(F)C5)CC4)cc3c2C(C)C)cn2ncnc2c1C (stereo not drawn) [Example 24] | 21 nM | 24900 nM | 7 nM
Cc1c(-c2[nH]c3ccc(C4CCC(N5CC(F)(F)C5)CC4)cc3c2C(C)C)cn2ncnc2c1C (stereo not drawn) [Example 25] | 180 nM | > 50000 nM | 49 nM
COc1cc(-c2[nH]c3ccc(C4CCC(N5CC[C@@H](N(C)C)C5)CC4)cc3c2C(C)C)cn2ncnc12 (stereo partly drawn) [Example 28] | 0.26 nM | 328 nM | 0.17 nM
COc1cc(-c2[nH]c3ccc(C4CCC(N5CCC[C@H]5C(N)=O)CC4)cc3c2C(C)C)cn2ncnc12 (stereo partly drawn) [Example 29] | 1.9 nM | 909 nM | 0.26 nM
COc1cc(-c2[nH]c3ccc(C4CCC(N5CC[C@@H](N(C)C)C5)CC4)cc3c2C(C)C)cn2ncnc12 (stereo partly drawn) [Example 30] | 5 nM | 824 nM | 3 nM
